This is an account of results in patent US20230212164A1, “ANNULATED 2-AMINO-3-CYANO THIOPHENES AND DERIVATIVES FOR THE TREATMENT OF CANCER” (BOEHRINGER INGELHEIM INTERNATIONAL GMBH, priority 2020, published 2023).

Test [1] deals with T1, protein-protein interaction between SOS1 and KRAS G12C (Homo sapiens, UniProt P01116, C118S/C51S/C80L/G12C).
T1 construct: His6 (N)
As to the kind of experiment: KRAS::SOS1 AlphaScreen binding assay. Here is the method:
KRAS::SOS1 AlphaScreen Binding Assay
Assay buffer: • 1×PBS • 0.1% BSA • 0.05% Tween 20
AlphaLISA Glutathione Acceptor Beads and AlphaScreen Streptavidin Donor Beads are mixed in assay buffer at a concentration of 10 μg/mL (final assay concentration) each prior to use and kept at room temperature.
Compounds are diluted to a final start concentration of 100 μM and are tested in duplicate. […] For compound a start concentration of 100 μM, 150 nL of compound solution is transferred per well in 11 concentrations in duplicate with serial 1:5 dilutions.
The assay is run using a fully automated robotic system in a darkened room below 100 Lux. 10 μL of KRAS::SOS1 GDP mix is added into columns 1-24 to the 150 nL of compound solution (final dilution in the assay 1:100, final DMSO concentration 1%).
After 30 minutes incubation time 5 μL of bead mix is added into columns 1-23. Plates are kept at room temperature in a darkened incubator. After further 60 minutes incubation, the signal is measured using a PerkinElmer Envision HTS Multilabel Reader using the AlphaScreen specifications from PerkinElmer. Each plate contains the following controls: • diluted DMSO+KRAS::SOS1 GDP mix+bead mix • diluted DMSO+KRAS::SOS1 GDP mix
IC50 values are calculated and analyzed using a 4 parametric logistic model.
On the technique in general: Alpha assays give light when donor and acceptor beads are brought close together.

Test [2] concerns pERK (Thr202/Tyr204) in NCI-H358 (KRAS G12C mutation). As to the kind of experiment: ERK phosphorylation assay 1 (AlphaLISA SureFire Ultra p-ERK1/2). Conditions: Homo sapiens, NCI-H358, read-out: IC50 H358 pERK.
Procedure: ERK Phosphorylation Assay
Materials Used for the Assay:
AlphaLISA SureFire Ultra p-ERK1/2 (Thr202/Tyr204) Assay Kit (ALSU-PERK-A500)
The cells are incubated for 1 h at room temperature and then incubated overnight in an incubator at 37° C. and 5% CO2 in a humidified atmosphere. 60 nL compound solution (10 mM DMSO stock solution) is then added using a Labcyte Echo 550 device. […] After 20 minutes of incubation at room temperature with shaking, 6 μL of each lysate sample is transferred to a 384-well Proxiplate and analyzed for pERK (Thr202/Tyr204) with the AlphaLISA SureFire Ultra pERK1/2 (Thr202/Tyr204) Assay Kit. 3 μL Acceptor Mix and 3 μL Donor Mix are added under subdued light and incubated for 2 h at room temperature in the dark, before the signal is measured on a PerkinElmer Envision HTS Multilabel Reader. The raw data were imported into and analyzed with the Boehringer Ingelheim proprietary software MegaLab (curve fitting based on the program PRISM, GraphPad Inc.).

pIC50: −log10 of the molar value.

T1 sequence (P01116 1-169 isoform P01116-2 G12C/C51S/C80L/C118S): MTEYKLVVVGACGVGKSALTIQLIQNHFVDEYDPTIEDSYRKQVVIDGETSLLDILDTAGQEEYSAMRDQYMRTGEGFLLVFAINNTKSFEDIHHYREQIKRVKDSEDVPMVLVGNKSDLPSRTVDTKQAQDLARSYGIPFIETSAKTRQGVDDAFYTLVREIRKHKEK

By pIC50 is commonly meant the negative decadic logarithm of the IC50, by convention in mol/L. `C=CC(=O)N1CCN(c2cc(-c3noc(C4(C)CCCc5sc(N)c(C#N)c54)n3)nc(N3CCN(C4COC4)CC3)c2)CC1` (stereo not shown) [Ia-18]: the pIC50 was 6.44 in test [1] (Table 36) and 7.24 in test [2].
On to `C=CC(=O)N1CCN(c2cc(-c3noc(C4CCCc5sc(N)c(C#N)c54)n3)nc(N3CCN(C)CC3)c2)CC1` (stereo not shown) [Ia-27], for which the pIC50 in test [1] (Table 36) was 6.62; in test [2], 7.21.
For the compound `CC#CC(=O)N1CCN(c2cc(-c3noc(C4(C)CCCc5sc(N)c(C#N)c54)n3)nc(N3CCN(C)CC3)c2)CC1` (stereo not shown) [Ia-168], the pIC50 in test [1] (Table 38) was 5.99.
As to `C=CC(=O)N1CCN(c2cc(-c3noc(C4(C)CCC(C)c5sc(N)c(C#N)c54)n3)nc(N3CCN(C)CC3)c2)CC1` (stereo not shown) [Ia-12], the figures for the pIC50 in test [1] (Table 36) and in test [2] were 6.93 and 7.87, respectively.
The like results for `C=CC(=O)N1C[C@@H]2CN(c3cc(-c4noc(C5(C)CCCc6sc(N)c(C#N)c65)n4)nc(N4CCN(C5CCCC5)CC4)c3)[C@@H]2C1` (stereo partly shown) [Ia-9] were, in that order, 6.67 and 7.26.
Regarding `C=CC(=O)NCC1CN(c2cc(-c3noc(C4(C)CCCc5sc(N)c(C#N)c54)n3)nc(N3CCN(C)CC3)c2)C1` (stereo not shown) [Ia-109], the figures for the pIC50 in test [1] (Table 36) and in test [2] were 6.03 and 5.22, respectively.
The like results for `C=CC(=O)N(C)c1cccc(-c2cc(-c3noc(C4(C)CCCc5sc(N)c(C#N)c54)n3)nc(N3CCN(C)CC3)c2)c1` (stereo not shown) [Ia-151] were, in that order, 5.92 and 6.74.
With `C=CC(=O)N1CCCN(c2cc(-c3noc(C4(C)CCCc5sc(N)c(C#N)c54)n3)nc(N3CCN(C)CC3)c2)CC1` (stereo not shown) [Ia-124], the pIC50 in test [1] (Table 36) is 6.80; in test [2], 7.12.
Take `C=CC(=O)N1CC[C@@H](Oc2cc(-c3noc([C@@]4(C)CCCc5sc(N)c(C#N)c54)n3)nc(N3CCN(C)CC3)c2)C1` [Ia-112]: the pIC50 in test [1] (Table 36) is 7.14; in test [2], 7.73.
Take `C=CC(=O)N1CCC2C1CCN2c1cc(-c2noc([C@@]3(C)CCCc4sc(N)c(C#N)c43)n2)nc(N2CCCN(C)C[C@@H]2C)n1` (stereo partly shown) [Ia-103]: the pIC50 in test [1] (Table 36) was 6.84.
For `C=CC(=O)N1CCN(c2cc(-c3noc(C4(C)CCCc5sc(N)c(C#N)c54)n3)nc(N3CCN(C)CC3)c2)CC1C` (stereo not shown) [Ia-108], the pIC50 in test [1] (Table 36) was 6.74; in test [2] it was 7.70.
The matching figures for `C=CC(=O)N1[C@H](C)CN(c2cc(-c3noc(C4(C)CCCc5sc(N)c(C#N)c54)n3)nc(N3CCN(C4CCCC4)CC3)c2)C[C@@H]1C` (stereo partly shown) [Ia-8]: 6.00 and 6.26.
Regarding `C=CC(=O)N1CCN(c2cc(-c3noc(C4(C)CCCc5sc(N)c(C#N)c54)n3)nc(N3CCN(CC)CC3)c2)CC1` (stereo not shown) [Ia-123], the results for the pIC50 in test [1] (Table 36) and in test [2] were 7.41 and 8.02, respectively.
Take `C=CC(=O)N1CC2(CCN(c3cc(-c4noc(C5(C)CCCc6sc(N)c(C#N)c65)n4)nc(N4CCN(C)CC4)c3)C2)C1` (stereo not shown) [Ia-143]: the pIC50 in test [1] (Table 36) was 6.47; in test [2], 5.88.
`C=CC(=O)N1CCN(c2cc(-c3ccncc3)nc(-c3noc(C4(C)CCCc5sc(N)c(C#N)c54)n3)c2)CC1` (stereo not shown) [Ia-33]: the figures for the pIC50 in test [1] (Table 36) and in test [2] were 6.35 and 7.30, respectively.
Consider `C=CC(=O)N1CC[C@H](Oc2cc(-c3noc(C4(C)CCCc5sc(N)c(C#N)c54)n3)nc(N3CCN(C)CC3)c2)C1` (stereo partly shown) [Ia-117], for which the figures for the pIC50 in test [1] (Table 36) and in test [2] were 6.33 and 6.92, respectively.
Regarding `C=CC(=O)N1CCN(c2cc(OCCN(C)C)cc(-c3noc(C4(C)CCCc5sc(N)c(C#N)c54)n3)c2)CC1` (stereo not shown) [Ia-90], the pIC50 in test [1] (Table 36) was 6.60.
Regarding `C=CC(=O)N1CCN(c2cc(-c3noc(C4(C)CCCc5sc(N)c(C#N)c54)n3)nc(N3CCN(C4CCC(F)(F)CC4)CC3)c2)CC1` (stereo not shown) [Ia-24], the pIC50 was 6.39 in test [1] (Table 36) and 7.10 in test [2].
As for `C=CC(=O)N1CCN(c2cc(-c3noc(C4(C)CCCc5sc(N)c(C#N)c54)n3)nc(N3CCNCC3)c2)CC1` (stereo not shown) [Ia-170], the pIC50 is 7.06 in test [1] (Table 40) and 6.57 in test [2].
Turning to `C=CC(=O)N1CCC(c2cc(-c3noc(C4(C)CCCc5sc(N)c(C#N)c54)n3)nc(N3CCN(C4CCCC4)CC3)c2)CC1` (stereo not shown) [Ia-2], the pIC50 in test [1] (Table 35) is 6.47; in test [2], 6.88.
As for `C=CC(=O)N1CCN(c2cc(-c3noc([C@@]4(C)CCCc5sc(N)c(C#N)c54)n3)nc(N3CCN(CC)CC3)c2)CC1` [Ia-126], the pIC50 was 7.52 in test [1] (Table 36) and 8.38 in test [2].
For the compound `C=CC(=O)N1CCN(c2cc(-c3noc([C@@]4(C)CCCc5sc(N)c(C#N)c54)n3)nc(N3CCN(C)C[C@@H]3C)c2)CC1` [Ia-14], the negative logarithm of the IC50 (pIC50) in test [2] was 8.57.
`C=CC(=O)N1CCN(c2cc(OCCN3CCCC3)cc(-c3noc(C4(C)CCCc5sc(N)c(C#N)c54)n3)c2)CC1` (stereo not shown) [Ia-144]: the pIC50 is 6.19 in test [1] (Table 36) and 7.16 in test [2].
The like results for `C=CC(=O)N1CCC(Oc2cc(-c3noc([C@@]4(C)CCCc5sc(N)c(C#N)c54)n3)nc(N3CCN(C)CC3)c2)CC1` [Ia-91] were, in that order, 7.31 and 7.94.
Regarding `C=CC(=O)N1CCN(c2cc(-c3noc(C4(C)CCCc5sc(N)c(C#N)c54)n3)nc(N3CCN(C4CCCC4)CC3)c2)CC1` (stereo not shown) [Ia-147], the pIC50 in test [1] (Table 36) is 7.15.
On the same count and under the same terms, then `C=CC(=O)N1CCCN(c2cc(-c3noc([C@@]4(C)CCCc5sc(N)c(C#N)c54)n3)nc(N3CCCN(CCCOC)C[C@@H]3C)n2)CC1` [Ia-45], with 8.22.
With `C=CC(=O)N1CCN(c2cc(-c3noc([C@@]4(C)CC[C@H](C)c5sc(N)c(C#N)c54)n3)nc(N3CCN(C4CCCC4)CC3)c2)CC1` [Ia-11], the values for the pIC50 in test [1] (Table 36) and in test [2] were 6.90 and 7.91, respectively.
The matching figures for `C=CC(=O)N1CCN(c2cc(-c3noc(C4(C)CCCc5sc(N)c(C#N)c54)n3)nc(N3CCN(C)CC3)c2)CC1` (stereo not shown) [Ia-87]: 7.29 and 8.00.
The like results for `C=CC(=O)N1CCN(c2cc(-c3noc(C4(C)CCCc5sc(N)c(C#N)c54)n3)nc(N3CCN(C4CC4)CC3)c2)CC1` (stereo not shown) [Ia-17] were, in that order, 6.59 and 7.53.
For the compound `C=CC(=O)N1CCN(c2cc(-c3noc(C4(C)CCCc5sc(N)c(C#N)c54)n3)nc(N3CCC(N4CCCCC4)C3)c2)CC1` (stereo not shown) [Ia-22], the pIC50 in test [1] (Table 36) was 7.40; in test [2] it was 8.17.
`C=CC(=O)N1CCN(c2cc(-c3noc(C4(C)CCCc5sc(N)c(C#N)c54)n3)nc(N3C[C@@H](C)N(CC)[C@@H](C)C3)c2)CC1` (stereo partly shown) [Ia-21]: the pIC50 in test [1] (Table 36) was 7.29; in test [2], 8.13.
The like results for `C=CC(=O)N1CCN(c2cc(-c3noc(C4(C)CCCc5sc(N)c(C#N)c54)n3)nc(N3CCN(CC)CC3)c2)CC1C` (stereo not shown) [Ia-107] were, in that order, 6.70 and 7.53.
As for `C=CC(=O)N1CCN(c2cc(-c3noc(C4(C)CCCc5sc(N)c(C#N)c54)n3)nc(N3CCC(N4CCOCC4)CC3)c2)CC1` (stereo not shown) [Ia-29], the figures for the pIC50 in test [1] (Table 36) and in test [2] were 7.32 and 8.11, respectively.
As to `C=CC(=O)N1CCN(c2cc(OCCCN(C)C)cc(-c3noc(C4(C)CCCc5sc(N)c(C#N)c54)n3)c2)CC1` (stereo not shown) [Ia-142], the pIC50 in test [1] (Table 36) is 6.75; in test [2], 7.44.
The like results for `C=CC(=O)N1CCCC(Oc2cc(-c3noc(C4(C)CCCc5sc(N)c(C#N)c54)n3)nc(N3CCN(C)CC3)c2)CC1` (stereo not shown) [Ia-145] were, in that order, 6.42 and 7.03.
Regarding `C=CC(=O)N1CCN(c2cc(-c3noc(C4(C)CCCc5sc(N)c(C#N)c54)n3)nc(N3CCN(C(C)C)CC3)c2)CC1` (stereo not shown) [Ia-110], the pIC50 in test [1] (Table 36) was 7.12; in test [2], 8.06.
On to `C=CC(=O)N1CCN(c2cc(-c3noc([C@@]4(C)CCCc5sc(N)c(C#N)c54)n3)nc(N3CCN(C)C[C@H]3C)c2)CC1` [Ia-119], for which, in test [2], the pIC50 is 7.62.
On to `C=CC(=O)N1CC(CN(C)c2cc(-c3noc([C@@]4(C)CCCc5sc(N)c(C#N)c54)n3)nc(N3CCCN(C)C[C@@H]3C)n2)C1` [Ia-93], for which the pIC50 in test [1] (Table 36) was 6.42.
With `C=CC(=O)N1CCN(c2cc(-c3noc([C@]4(C)CCCc5sc(N)c(C#N)c54)n3)nc(N3CCN(C)C[C@@H]3C)c2)CC1` [Ia-13], in test [2], the pIC50 was 8.14.
In the case of `C=CC(=O)N1CCN(c2cc(-c3noc(C4(C)CCCc5sc(N)c(C#N)c54)n3)nc(N3CCN(CCF)CC3)c2)CC1` (stereo not shown) [Ia-125], the pIC50 in test [1] (Table 36) and in test [2] was 6.63 in each case.
With `C=CC(=O)N1CCN(c2cc(-c3noc(C4(C)CCCc5sc(N)c(C#N)c54)n3)nc(N3CCN(C(C)(C)C)CC3)c2)CC1` (stereo not shown) [Ia-31], in test [1] (Table 36), the pIC50 was 7.08.
Same read-out and setting: then `C=CC(=O)N1CCC(Oc2cc(O[C@@H](C)[C@@H]3CCCN3C)nc(-c3noc([C@]4(C)CCCc5sc(N)c(C#N)c54)n3)c2)CC1` [Ia-5], with 6.21.
Still for that read-out and setting: under `C=CC(=O)N1CC2=C(C1)CN(c1cc(-c3noc([C@@]4(C)CCCc5sc(N)c(C#N)c54)n3)nc(N3CCCN(C)C[C@@H]3C)n1)C2` [Ia-102] stands 6.93; under `C=CC(=O)N1CCC2(CCN(c3cc(-c4noc([C@@]5(C)CCCc6sc(N)c(C#N)c65)n4)nc(N4CCCN(C)C[C@@H]4C)n3)C2)C1` (stereo partly shown) [Ia-96], 6.10.
Still for that read-out and setting: under `C=CC(=O)N1CCN(c2cc(OCCN(C)C)nc(-c3noc(C4(C)CCCc5sc(N)c(C#N)c54)n3)c2)CC1` (stereo not shown) [Ia-89] stands 7.32.
